In US4127687A, “Prevention of fouling of marine structures such as boat hulls” (Rohm and Haas Company, priority 1976, dated 1978):
Converted amounts (≈) assume the structure as drawn.

Assays:
barnacle = assay: Membrane Diffusion Raft Trials, barnacle control; type: in vivo, barnacles; conditions: membrane test, average 15 to 16 weeks of immersion
In short: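 Test compound held in a plastic container sealed by a porous membrane, diffusing into surrounding seawater on raft panels alongside standard poisons and a non-toxic control membrane. Settlement timed and quantified by regular inspection; scored 0 (none), + (some) or ++ (effective), averaging 15 to 16 weeks' immersion.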

Enteromorpha spores = assay: Laboratory toxicity test (Lab Bioassay) with Enteromorpha spores; type: in vivo; conditions: using Enteromorpha spores
From the text: Standard laboratory toxicity tests use Enteromorpha spores (zoospores or gametes) but Ectocarpus spores and barnacle nauplii may also be used. During the spore tests additional information on the control of bacterial and diatom slimes becomes available since these organisms are unavoidably introduced with the spore inoculum.
More detailed laboratory toxicity tests on promising compounds determine LD50 values as percentage saturated solution.
^c Using Enteromorpha spores.

weed [1] = assay: Paint panel / plaque tests against weed (Table 2); type: in vivo, grass-like algal growth common in sea water; design: key: high performance; medium performance; low performance; poor or unacceptable performance; conditions: April to November, 1975
From the text: (3) PAINT FORMULATION AND TEST PANEL OR PLAQUE TESTS
In order to evaluate the compound under practical conditions, weighed quantities of promising compounds are ground in standard volumes of a selected range of paint media and brushed out on plaques for marine immersion.
The anti-fouling paint formulations used is exemplified by the following: […]
The most preferred specific compounds were utilized in paints including vinyl chloride-vinyl acetate copolymers, chlorinated rubber, acrylic emulsions, and conventional paints with or without rosin to contain 20% by weight of biocide in the wet film and in some cases (Example 144 and Example 145) with concentrations of 5, 10, and 15% based on the wet film. Each of the compounds is also described in the membrane tests noted above. The paints were applied at normal thicknesses to plaques or panels of 10 centimeters by 10 centimeters which were immersed in various positions as described for the raft noted above. The compounds and results, as against weed, in the season April to November, 1975, are as follows: […]

[2] = Water solubility by UV spectrophotometric method; type: physicochemical; conditions: water, saturated solution; Table 1; read-out: Solubility by UV method
In short: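 Molar absorptivity determined from UV absorbance of a known-concentration aqueous solution at λmax (10 cm cell). Saturated solution prepared by stirring excess compound in deionized water ~72 hrs, filtered, diluted to mid-scale absorbance; solubility calculated from absorbance using that absorptivity.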

[3] = Amount of toxicant remaining in the test container after membrane diffusion raft tests; type: physicochemical; design: key: 0: empty or trace; +: some; + +: ample; conditions: after completion of membrane diffusion raft tests
In short: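 Known amount of compound held in a cylindrical container sealed with a membrane of known porosity, fixed to a raft panel so toxicant diffuses into the surrounding water. Each panel carries 35 test compounds, 4 standard poisons and 1 non-toxic membrane control. After the trial, container contents inspected visually for remaining toxicant (0 = empty or trace).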

weed [4] = assay: Membrane Diffusion Raft Trials, weed control; type: in vivo, grass-like algal growth common in sea water; conditions: membrane test, average 15 to 16 weeks of immersion
In short: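 Field raft test in sea water: known quantity of compound in container sealed with membrane of known porosity, diffusing into surrounding water; panels at waterline (illuminated, aerated) and flats (poorly lit, deeper). Fouling settlement inspected over about 15-16 weeks average immersion; scored 0 none, + some, ++ effective.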

CCCCCCCCCCn1sc(Cl)c(Cl)c1=O [Example 63]
Barnacle Control (barnacle): 0 | Lab Bioassay LD50 (Enteromorpha spores): 0.03 percentage saturated solution | Effectiveness in paint CONV (conventional anti-fouling formulation) (weed [1]): l | Effectiveness in paint CR (chlorinated rubber) (weed [1]): p | Effectiveness in paint CR/R (chlorinated rubber/rosin) (weed [1]): p | Effectiveness in paint EM (acrylic emulsion) (weed [1]): m | Effectiveness in paint V (polyvinyl chloride-acetate) (weed [1]): m | Effectiveness in paint V/R (vinyl/rosin) (weed [1]): m | solubility [2]: 1.4 µg/mL (≈ 4.51 µM) | Contents at the end of test (amount of toxicants remaining in the test container) [3]: + + | Weed Control (weed [4]): + +

CCCCCCCCn1scc(Cl)c1=O [Example 43]
Barnacle Control (barnacle): 0 | Lab Bioassay LD50 (Enteromorpha spores): 0.0003 percentage saturated solution | Effectiveness in paint V (polyvinyl chloride-acetate) (weed [1]): h | Effectiveness in paint V/R (vinyl/rosin) (weed [1]): h | solubility [2]: 60 µg/mL (≈ 242 µM) | Contents at the end of test (amount of toxicants remaining in the test container) [3]: + | Weed Control (weed [4]): + +

CCCCCCCCCCCCn1sc(Cl)cc1=O [Example 23]
Barnacle Control (barnacle): + | Lab Bioassay LD50 (Enteromorpha spores): 0.02 percentage saturated solution | solubility [2]: 0.7 to 1.5 µg/mL (≈ 2.3 to 4.94 µM) | Contents at the end of test (amount of toxicants remaining in the test container) [3]: + | Weed Control (weed [4]): + +

O=c1cc(Cl)sn1-c1ccc(Cl)cc1 [Example 34]
Barnacle Control (barnacle): + + | Lab Bioassay LD50 (Enteromorpha spores): 0.025 percentage saturated solution | solubility [2]: 41 µg/mL (≈ 167 µM) | Contents at the end of test (amount of toxicants remaining in the test container) [3]: + + | Weed Control (weed [4]): + +

O=c1c(Br)c(Br)sn1Cc1ccc(Cl)cc1 [Example 99]
Barnacle Control (barnacle): + | Lab Bioassay LD50 (Enteromorpha spores): 0.01 percentage saturated solution | solubility [2]: 1.7 µg/mL (≈ 4.43 µM) | Contents at the end of test (amount of toxicants remaining in the test container) [3]: + + | Weed Control (weed [4]): + +

O=c1cc(Cl)sn1Cc1ccc(Cl)cc1 [Example 32]
Barnacle Control (barnacle): + | Lab Bioassay LD50 (Enteromorpha spores): 0.018 percentage saturated solution | solubility [2]: 70 µg/mL (≈ 269 µM) | Contents at the end of test (amount of toxicants remaining in the test container) [3]: + + | Weed Control (weed [4]): + +

O=c1c(Cl)c(Cl)sn1Cc1ccc(Cl)cc1 [Example 72]
Barnacle Control (barnacle): + | Lab Bioassay LD50 (Enteromorpha spores): 0.015 percentage saturated solution | solubility [2]: 11 µg/mL (≈ 37.3 µM) | Contents at the end of test (amount of toxicants remaining in the test container) [3]: + + | Weed Control (weed [4]): + +

O=c1c(Br)csn1C1CCCCC1 [Example 51]
Barnacle Control (barnacle): + | Lab Bioassay LD50 (Enteromorpha spores): 0.01 percentage saturated solution | solubility [2]: 143 µg/mL (≈ 545 µM) | Contents at the end of test (amount of toxicants remaining in the test container) [3]: + | Weed Control (weed [4]): + +

COc1ccc(-n2sc(Cl)cc2=O)cc1 [Example 38]
Barnacle Control (barnacle): + | Lab Bioassay LD50 (Enteromorpha spores): 0.025 percentage saturated solution | solubility [2]: 300 µg/mL (≈ 1240 µM) | Contents at the end of test (amount of toxicants remaining in the test container) [3]: + + | Weed Control (weed [4]): + +

O=c1c(Cl)c(Cl)sn1Cc1ccccc1 [Example 71]
Barnacle Control (barnacle): + + | Lab Bioassay LD50 (Enteromorpha spores): 0.25 percentage saturated solution | solubility [2]: 52 µg/mL (≈ 200 µM) | Contents at the end of test (amount of toxicants remaining in the test container) [3]: + | Weed Control (weed [4]): + +
